One experiment has as its target T1, TIP48/TIP49 complex (Homo sapiens, UniProt Q9Y230+Q9Y265).
T1 construct: made in house; host or cells: E. coli
Put plainly: ATPase assay of TIP48/TIP49 complex (ADP-Glo). The experiment is classed as biochemical. The settings on record: concentration at which the ATPase activity was inhibited by 50%. In short, it runs like this: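 Recombinant human TIP48 and TIP49 expressed in E. coli (24.5 μg/mL final) were incubated 1.5 h at room temperature with compound (0.0007–200 μM, 2% DMSO) in Tris-HCl pH 7.5 buffer containing MgCl2 and ATP. ADP formed was detected by ADP-Glo luminescence; inhibition came from dose-response curves.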
(In ADP-Glo the light output rises with the ADP produced.)

Experiment [1] relates to human lymphoma cell line RAMOS cells. Put plainly: Cell growth inhibition test using RAMOS cell, MTT assay. The class given is cell-based. The settings on record: 50% growth inhibition concentration. Here is the method:
A cell growth inhibition test was carried out by treating human lymphoma cell line RAMOS cells with a test compound for a given period and then counting the number of viable cells by MTT assay or CellTiter-Glo Luminescent Cell Viability Assay (manufactured by Promega Corp.; hereinafter, referred to as ATP assay).
RAMOS cells were suspended in a medium (RPMI1640 medium containing 10% fetal bovine serum). The cell suspension was inoculated at 5000 cells/150 μL/well to a 96-well multiwell plate. The test compound was dissolved in DMSO, and this solution was diluted with medium to prepare a sample solution (DMSO concentration: 1% or lower). Subsequently, test compound-free medium or the sample solution was added thereto at 50 μL/well. The MTT assay was carried out at the day of addition of the sample solution or the DMSO dilution to the cells and after culture at 37° C. for 3 days under 5% CO2 of the cells supplemented with the sample solution or the medium. The MTT assay was carried out as follows.
A 5 mg/mL solution of MTT (3-(4,5-dimethylthiazol-2-yl)-2,5-diphenyltetrazolium bromide, Sigma-Aldrich Corp., M-2128) was prepared using a phosphate buffered solution (Dulbecco's phosphate-buffered saline). This MTT solution was added at 20 μL/well to the plate. Then, the plate was incubated at 37° C. for 4 hours under 5% CO2. The plate was centrifuged at 1200 rpm for 5 minutes, and then, the culture supernatant was removed by suction using a dispenser. DMSO was added thereto at 150 μL/well to dissolve formed formazan. […] from each well was rendered uniform by the stirring of the plate using a plate mixer. The absorbance of each well was measured using a plate reader under conditions involving OD of 540 nm and reference of 660 nm.
The number of viable cells and absorbance (hereinafter, referred to as an OD value) have been confirmed to correlate with each other. Therefore, the rate of cell growth was calculated according to the following expression: Rate of cell growth (T/C %) of a test compound-supplemented well=100×[(B−C)/(A−C)] wherein A represents the OD value (final culture date) of a test compound-free well; B represents the OD value (final culture date) of a test compound-containing well; and C represents the OD value (day of cell inoculation) of a well at the start of contact of the cells with the test compound.
T/C % at each concentration of the test compound was determined. The concentration at which the test compound offered 50% growth rate was calculated as a 50% growth inhibition concentration (GI50) value from the growth rates at two points interpolating 50% and the concentrations, and is shown in Table 56.
In general terms: Formazan colour is commonly taken as a measure of viable cells.

This note sets out measurements from patent publication US20170107207A1, “AMINOPYRAZOLONE DERIVATIVE” (DAIICHI SANKYO COMPANY, LIMITED, priority 2014, published 2017).

The structures appear in SMILES notation.

As usually defined, the IC50 is the midpoint of a concentration-inhibition curve. Read a low IC50 as higher potency. By GI50 is commonly meant the concentration giving 50% growth inhibition. High values mean lower sensitivity of the cells, low ones greater sensitivity of the cells.

T1 sequence (Q9Y230 whole entry): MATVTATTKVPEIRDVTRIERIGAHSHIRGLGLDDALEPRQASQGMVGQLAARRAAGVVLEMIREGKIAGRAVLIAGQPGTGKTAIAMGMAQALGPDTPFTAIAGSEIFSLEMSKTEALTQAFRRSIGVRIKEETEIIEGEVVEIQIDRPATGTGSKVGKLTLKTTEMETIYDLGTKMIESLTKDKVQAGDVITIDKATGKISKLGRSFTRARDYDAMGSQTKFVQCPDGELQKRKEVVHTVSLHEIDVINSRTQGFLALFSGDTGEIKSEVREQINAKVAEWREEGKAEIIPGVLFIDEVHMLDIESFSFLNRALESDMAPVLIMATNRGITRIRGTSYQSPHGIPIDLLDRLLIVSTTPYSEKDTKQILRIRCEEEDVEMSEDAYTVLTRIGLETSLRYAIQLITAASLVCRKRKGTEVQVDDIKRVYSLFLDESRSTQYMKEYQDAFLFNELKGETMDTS
T1 sequence (Q9Y265 whole entry): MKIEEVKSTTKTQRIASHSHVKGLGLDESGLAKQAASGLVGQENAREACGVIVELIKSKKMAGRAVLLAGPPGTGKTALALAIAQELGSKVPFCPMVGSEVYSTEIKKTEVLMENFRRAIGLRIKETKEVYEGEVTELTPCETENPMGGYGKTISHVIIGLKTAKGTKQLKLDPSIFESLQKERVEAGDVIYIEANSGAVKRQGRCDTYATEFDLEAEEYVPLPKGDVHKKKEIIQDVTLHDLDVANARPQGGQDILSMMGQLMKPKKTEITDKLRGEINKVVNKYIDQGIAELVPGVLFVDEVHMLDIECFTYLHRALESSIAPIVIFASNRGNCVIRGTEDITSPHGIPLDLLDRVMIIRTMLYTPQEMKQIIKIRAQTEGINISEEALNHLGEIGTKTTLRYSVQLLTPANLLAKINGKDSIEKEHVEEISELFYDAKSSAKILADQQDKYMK

As to `CCOc1ccc(Cl)cc1C(=O)NCC(C)(C)CC(=O)Nc1c(CCN(CC)CC)n(C)n(-c2ccccc2)c1=O` [Example 17, 5-Chloro-N-[4-({5-[2-(diethylamino)ethyl]-1-methyl-3-oxo-2-phenyl-2,3-dihydro-1H-pyrazol-4-yl}amino)-2,2-dimethyl-4-oxobutyl]-2-ethoxybenzamide], half-maximal inhibition at TIP48/TIP49 complex (IC50) was put at 60 nM. Further, the GI50 in experiment [1] was 130 nM.
With `Cc1c(NC(=O)CC(C)(C)CNC(=O)c2cc(Cl)cc3c2OCCC3)c(=O)n(-c2ccccc2)n1C` [Example 106, 6-Chloro-N-{4-[(1,5-dimethyl-3-oxo-2-phenyl-2,3-dihydro-1H-pyrazol-4-yl)amino]-2,2-dimethyl-4-oxobutyl}chromane-8-carboxamide], at TIP48/TIP49 complex, inhibition was half-maximal at 35 nM (IC50). The compound also displayed a 50% growth inhibitory concentration (GI50) in experiment [1] of 100 nM.
The compound `COc1ccc(Cl)cc1C(=O)NCC(C)(C)CC(=O)Nc1c(C)n(C)n(-c2cccc(C)c2)c1=O` [Example 145, 5-Chloro-N-(4-{[1,5-dimethyl-2-(m-toluyl)-3-oxopyrazol-4-yl]amino}-2,2-dimethyl-4-oxobutyl)-2-methoxybenzamide] returned a concentration for half-maximal inhibition (IC50) against TIP48/TIP49 complex of 42 nM. The compound further returned a GI50 in experiment [1] of 770 nM.
On TIP48/TIP49 complex, `CCOc1ccc(Cl)cc1C(=O)NCC(C)(C)CC(=O)Nc1c(C)n(C)n(-c2ccccn2)c1=O` [Example 149, 5-Chloro-N-(4-{[1,5-dimethyl-3-oxo-2-(2-pyridyl)pyrazol-4-yl]amino}-2,2-dimethyl-4-oxobutyl)-2-ethoxybenzamide] registered an IC50 of 100 nM. This compound also displayed a GI50 in experiment [1] of 190 nM.
At TIP48/TIP49 complex, `COc1cc(F)c(Cl)cc1NC(=O)CC(C)(C)CC(=O)Nc1c(CN(C)C)n(C)n(-c2ccccc2)c1=O` [Example 9, N-(5-Chloro-4-fluoro-2-methoxyphenyl)-N′-{5-[(dimethylamino)methyl]-1-methyl-3-oxo-2-phenyl-2,3-dihydro-1H-pyrazol-4-yl}-3,3-dimethylpentanediamide] gave an IC50 of 210 nM. This compound also came in with a GI50 in experiment [1] of 480 nM.
The matching figures for `CCCn1c(C)c(NC(=O)CC(C)(C)CC(=O)Nc2cc(Cl)c(F)cc2OC)c(=O)n1-c1ccccc1` [Example 138, N-(5-Chloro-4-fluoro-2-methoxyphenyl)-3,3-dimethyl-N′-(3-methyl-5-oxo-1-phenyl-2-propylpyrazol-4-yl)pentanediamide]: 180 nM and 330 nM.
`CCOc1ccc(Cl)cc1C(=O)NCC(C)(C)CC(=O)Nc1c(CCCCN(C)C)n(C)n(-c2ccccc2)c1=O` [Example 88, 5-Chloro-N-[4-({5-[4-(dimethylamino)butyl]-1-methyl-3-oxo-2-phenyl-2,3-dihydro-1H-pyrazol-4-yl}amino)-2,2-dimethyl-4-oxobutyl]-2-ethoxybenzamide] yielded an IC50 on TIP48/TIP49 complex of 33 nM. The same compound showed a 50% growth inhibitory concentration (GI50) in experiment [1] of 61 nM.
Take `COc1ccc(Cl)cc1NC(=O)CC(C)(C)CC(=O)Nc1c(C)n(C)n(C2CCCCC2)c1=O` [Example 160, N-(5-Chloro-2-methoxyphenyl)-N′-(1-cyclohexyl-2,3-dimethyl-5-oxopyrazol-4-yl)-3,3-dimethylpentanediamide]: the IC50 on TIP48/TIP49 complex was 200 nM. For the same compound, the GI50 in experiment [1] turned out to be 990 nM.
The like results for `CCOc1ccc(Cl)cc1NC(=O)CC(C)(O)CC(=O)Nc1c(C)n(C)n(-c2ccccc2)c1=O` (centres unmarked) [Example 103, N-(5-Chloro-2-ethoxyphenyl)-N′-(1,5-dimethyl-3-oxo-2-phenyl-2,3-dihydro-1H-pyrazol-4-yl)-3-hydroxy-3-methylpentanediamide] were, in that order, 170 nM and 1400 nM.
With `CCOc1ccc(Cl)cc1C(=O)NCC(C)(C)CC(=O)Nc1c(C)n(CC)n(-c2ccccc2)c1=O` [Example 137, 5-Chloro-2-ethoxy-N-{4-[(1-ethyl-5-methyl-3-oxo-2-phenyl-2,3-dihydro-1H-pyrazol-4-yl)amino]-2,2-dimethyl-4-oxobutyl}benzamide], the 50% inhibitory concentration (IC50) at TIP48/TIP49 complex is 38 nM. Also, in experiment [1], the 50% growth inhibitory concentration (GI50) is 48 nM.
The compound `Cc1c(NC(=O)CC(C)(C)CNC(=O)c2cc(Cl)cc3c2OC(C)CN3C)c(=O)n(-c2ccccc2)n1C` (centres unmarked) [Example 110, 6-Chloro-N-{4-[(1,5-dimethyl-3-oxo-2-phenyl-2,3-dihydro-1H-pyrazol-4-yl)amino]-2,2-dimethyl-4-oxobutyl}-2,4-dimethyl-2,3-dihydro-1,4-benzoxazine-8-carboxamide] gave a concentration for half-maximal inhibition (IC50) against TIP48/TIP49 complex of 33 nM. Growth in experiment [1] was halved (GI50) at 120 nM.
`COCc1c(NC(=O)CC(C)(C)CNC(=O)c2cc(Cl)cc3c2OC(C)(C)C3)c(=O)n(-c2ccccc2)n1C` [Example 121, 5-Chloro-N-(4-{[5-(methoxymethyl)-1-methyl-3-oxo-2-phenyl-2,3-dihydro-1H-pyrazol-4-yl]amino}-2,2-dimethyl-4-oxobutyl)-2,2-dimethyl-3H-benzofuran-7-carboxamide]: at TIP48/TIP49 complex, the IC50 is 61 nM. Further, the 50% growth inhibitory concentration (GI50) in experiment [1] amounted to 140 nM.
As to `CNCc1c(NC(=O)CC(C)(C)CNC(=O)c2cc(Cl)ccc2OC)c(=O)n(-c2ccccc2)n1C` [Example 4, 5-Chloro-N-(2,2-dimethyl-4-{[1-methyl-5-(methylaminomethyl)-3-oxo-2-phenyl-2,3-dihydro-1H-pyrazol-4-yl]amino}-4-oxobutyl)-2-methoxybenzamide], half-maximal inhibition against TIP48/TIP49 complex (IC50) required 48 nM. The compound further had a GI50 in experiment [1] of 170 nM.
Turning to `Cc1c(NC(=O)CC(C)(C)CNC(=O)c2cc(Cl)ccc2OC(C)C)c(=O)n(-c2ccccc2)n1C` [Example 94], the half-inhibitory concentration (IC50) against TIP48/TIP49 complex came to 87 nM. Further, in experiment [1], the GI50 came out at 73 nM.
As for `COc1ccc(Cl)cc1C(=O)NCC(C)(C)C(O)C(=O)Nc1c(C)n(C)n(-c2ccccc2)c1=O` (centres unmarked) [Example 112], the half-maximal inhibitory concentration (IC50) against TIP48/TIP49 complex was 150 nM. This compound yielded a 50% growth inhibitory concentration (GI50) in experiment [1] of 680 nM.
Turning to `COc1ccc(Cl)cc1NC(=O)CC1(CC(=O)Nc2c(C)n(C)n(-c3ccccc3)c2=O)OCCO1` [Example 98, N-(5-Chloro-2-methoxyphenyl)-2-(2-{2-[(1,5-dimethyl-3-oxo-2-phenyl-2,3-dihydro-1H-pyrazol-4-yl)amino]-2-oxoethyl}-1,3-dioxolan-2-yl)acetamide], the half-inhibitory concentration (IC50) against TIP48/TIP49 complex was found to be 2200 nM. The same compound had a GI50 in experiment [1] of 9600 nM.
`COc1ncc(Cl)cc1C(=O)NCC(C)(C)CC(=O)Nc1c(CN(C)C)n(C)n(-c2ccccc2)c1=O` [Example 7, 5-Chloro-N-[4-({5-[(dimethylamino)methyl]-1-methyl-3-oxo-2-phenyl-2,3-dihydro-1H-pyrazol-4-yl}amino)-2,2-dimethyl-4-oxobutyl]-2-methoxypyridine-3-carboxamide] came in with a half-inhibitory concentration (IC50) at TIP48/TIP49 complex of 110 nM. This compound came in with a 50% growth inhibitory concentration (GI50) in experiment [1] of 470 nM.
At TIP48/TIP49 complex, `CCOc1ccc(Cl)cc1C(=O)NCC(C)(C)CC(=O)Nc1c(CCN(C)C(C)C)n(C)n(-c2ccccc2)c1=O` [Example 19, 5-Chloro-2-ethoxy-N-{4-[(5-{2-[isopropyl(methyl)amino]ethyl}-1-methyl-3-oxo-2-phenyl-2,3-dihydro-1H-pyrazol-4-yl)amino]-2,2-dimethyl-4-oxobutyl}benzamide] displayed a half-inhibitory concentration (IC50) of 63 nM. Besides, the 50% growth inhibitory concentration (GI50) in experiment [1] was found to be 150 nM.
Consider `C=Cn1c(C)c(NC(=O)CC(C)(C)CC(=O)Nc2cc(Cl)c(F)cc2OC)c(=O)n1-c1ccccc1` [Example 143, N-(5-Chloro-4-fluoro-2-methoxyphenyl)-3,3-dimethyl-N′-(3-methyl-5-oxo-1-phenyl-2-vinylpyrazol-4-yl)pentanediamide], for which the IC50 against TIP48/TIP49 complex stood at 260 nM. In experiment [1], halving of growth (GI50) required 1200 nM.
For the compound `Cc1c(NC(=O)CC(C)(C)CNC(=O)c2cc(Cl)ccc2OC2CC2)c(=O)n(-c2ccccc2)n1C` [Example 96], it took 35 nM to reach half-maximal inhibition against TIP48/TIP49 complex (IC50). This compound also gave a concentration for 50% growth inhibition (GI50) in experiment [1] of 120 nM.
Compound `CCOc1ncc(Cl)cc1C(=O)NCC(C)(C)CC(=O)Nc1c(C)n(C)n(-c2ccccn2)c1=O` [Example 150, 5-Chloro-N-(4-{[1,5-dimethyl-3-oxo-2-(2-pyridyl)-2,3-dihydro-1H-pyrazol-4-yl]amino}-2,2-dimethyl-4-oxobutyl)-2-ethoxypyridine-3-carboxamide] came in with a half-inhibitory concentration (IC50) against TIP48/TIP49 complex of 110 nM. The compound also gave a 50% growth inhibitory concentration (GI50) in experiment [1] of 350 nM.
Consider `Cc1c(NC(=O)CC(C)(C)CNC(=O)c2cc(Cl)cc3c2OC(C)(C)C3)c(=O)n(-c2ccccc2)n1CCO` [Example 139, 5-Chloro-N-(4-{[1-(2-hydroxyethyl)-5-methyl-3-oxo-2-phenyl-2,3-dihydro-1H-pyrazol-4-yl]amino}-2,2-dimethyl-4-oxobutyl)-2,2-dimethyl-3H-benzofuran-7-carboxamide], for which half-maximal inhibition on TIP48/TIP49 complex (IC50) required 25 nM. Further, halving of growth in experiment [1] (GI50) required 65 nM.
